# Source: US20260185992A1, “METHODS FOR SELECTING AND TREATING PATIENTS WITH RETINAL DISEASE BASED ON COMPLEMENT PATHWAY HYPERACTIVITY” (Oak Bay Biosciences Inc., priority 2024, published 2026)
# Like-named read-outs stand apart in the source and are kept apart here.
# Tests used:
# [1] = test system: patients with ocular disease (Geographic Atrophy, AMD); settings: cited from earlier work; for benefit in trials: GA trials, systemic or IVT administered agents; for Status (clinical trial outcome): Table 1, ocular disease indication
# GA patients [2] = settings: 2 mg q4w, cited from earlier work
# [3] = FDA prescribing information; cited from earlier work
# C5 = C5 (Homo sapiens, UniProt P01031); settings: report from publications; read-out: affinity for C5; cited from earlier work
# Bb in aqueous humor [4] = assay: CHROMA/SPECTRI Phase 3 biomarker substudy: response to lampalizumab by aqueous humor Bb; assay type: in vivo, human; settings: Month 6
# Experimental: Patient level data for patients in the sham, q4w, and […] lampalizumab Phase 3 biomarker study, as reported by Edmonds et al (Edmonds R. et al., “Complement pathway Inhibition by Lampalizumab: Analysis of Data From Chroma and Spectri Phase III Clinical Trials.” Ophthalmol Sci. 2023; 3 (3): 100286. Published 2023 Feb. 13), in Supplemental FIG. 6 of Bb (ng/mL) in aqueous humor was measured and converted into numerical data points. To verify accuracy of the plotted data points, mean and standard deviation was calculated using the plotted data and compared to the reported mean and standard deviation in Edmonds et al. Values were in good agreement.
# (§1) In addition to the overall efficacy analyses, a biomarker sub study was conducted with about 100 patients (of which 33 from sham, q4w, q6w) with biomarker sampling at baseline and Month 6. Multiple complement factors were measured, including CFB, Bb, FD, C3, C3b/iC3b/C3d, C4, C4b/C4c. Results were described in Edmonds et al. Individual data points for the measured ocular proteins were reported in figures (Edmonds at FIG. 4 and Supplemental FIGS. 4-10) in addition to cohort level metrics (baseline and efficacy at 6 months).
# In Edmonds, the ratio of Bb/CFB was used to assess complement activity and concluded that dosing with higher concentrations or more frequent dosing would not result in greater inhibitor of the complement pathway as there is no meaningful correlation between Bb: CFB ratio and percent change in aqueous humor from baseline to week 24.
# To reassess the data & results described in Edmonds according to the categorization described herein, the data points for Bb at baseline and Month 6 in Supplemental FIG. 6 were converted into numerical values based on measurement relative to the axes and categorized as follows:
# • 1. […] Ineffective lampalizumab administration-Hyper baseline, hyper at Month 6 and <50% reduction in Bb at Month 6 from baseline Bb • 3.
# [5] = test system: patients with geographic atrophy; assay: CHROMA + SPECTRI Phase 3 trials: change in GA area from baseline; assay type: in vivo, human
# Experimental: The CHROMA & SPECTRI Phase 3 trials evaluated lampalizumab (anti-fD fab) intravitreally administered IVT 10 mg at q4w or q6w intervals compared to sham (untreated) controls. Both studies had identical designs, and each enrolled a total of about 900 patients (300 per cohort, lampa q4w, lampa […], etc). The trial is described in Holz et al. (Holz F G et al. “Efficacy and Safety of Lampalizumab for Geographic Atrophy Due to Age-Related Macular Degeneration: Chroma and Spectri Phase 3 Randomized Clinical Trials”. JAMA Ophthalmol. 2018; 136 (6): 666-677)
# as §1
# As “control” prediction methodology, the pooled progression for sham, q4w, and q6w at 12 months as reported in Edmonds of the overall Phase 3 was divided by 2 to estimate the progression of a cohort of any patients at 6 months.
# Bb in aqueous humor [6] = settings: essentially all individual patients treated, q4w and q6w (Edmonds at FIG. 4B); cited from earlier work
# [7] = test system: patients with geographic atrophy; settings: cited from earlier work
# [8] = test system: complement component Ba in aqueous humor; assay: Real world SYFOVRE study: response category by aqueous humor Ba; assay type: in vivo, human
# Experimental: (§2) Study Description: This study included GA anatomic (OCT, Specralis) & treatment administration data (treatment, injection date) and aqueous humor (AH) samples from 9 eyes of 5 patients with bilateral GA without CNV, treated with SYFOVRE® per USPI at a private retinal practice in the United States of America. The study was performed in accordance with the tenets of the Declaration of Helsinki and the Medical Research Involving Human Subjects Act (WMO) and was approved by the local Institutional Review Board. Written informed consent was obtained from all participants.
# Assessment of biomarkers of AH concentration of complement component Ba. Aqueous humor sampling of the eyes was conducted by anterior chamber paracentesis using a 30-gauge needle attached to a 1-ml syringe. Samples of up to 150 μl were obtained at baseline (prior to first administration of SYFOVRE®) and after the first, second, or third administration of SYFOVRE®. Quantitative measurement of AH Ba was carried out using a direct capture immunoassay (Micro Vue; Qidel Corporation). Samples were transferred to sterile polypropylene tubes immediately after collection and stored at −80° C. until analysis was performed.
# Categorization of eyes into hyper/homeo/hypo groups was performed: Hyper was ≥20 ng/mL Ba, Homeo was <20 to ≥10 ng/mL Ba, Hypo was <10 ng/mL Ba.
# Categorization of response to SYFOVRE® based on biomarker criteria was performed.
# [9] = test system: eyes of patients with bilateral GA without CNV; assay: Real world SYFOVRE study: area of RPE loss by OCT; assay type: in vivo, human; settings: post treatment (70 days)
# Experimental: as §2
# For each individual eye, assessment of GA progression between baseline and the measurement of the post treatment ocular proteomics was performed based on OCT images taken at the relevant visits (baseline and visits when AH sample taken). OCT analysis of retinal atrophy was performed using automated measurement of area of RPE loss, with a foveally centered, ETDRS matched analysis performed by RetinAI. Given variability in image centering and quality between visits, for a given eye, only those regions of the retina that had consistent OCT imaging & analysis coverage at each relevant timepoint were used to calculate change in area of retinal atrophy.
# [10] = test system: patients with bilateral GA; assay: FILLY Phase 2 study eye vs. fellow eye analysis; assay type: in vivo, human; settings: baseline to month 12
# Experimental: Apellis sponsored FILLY was a phase 2 trial evaluating efficacy of intravitreal pegcetacoplan complement C3 and C3b inhibitor on slowing GA progression, which included only one eye per participant in the treatment group.
# A post hoc analysis of phase 2 FILLY trial data comparing study (treated monthly, treated every other month and sham-treated) and fellow (untreated) eyes in a split-person study design was performed and the results published (Fu et al, 2023, hereinafter “Fu”). This analysis included 288 eyes from 144 patients with bilateral GA from the FILLY phase 2 trial (Clinical Trials identifier: NCT02503332). Only patients with bilateral GA and without evidence of choroidal neovascularization in either eye were included. Patient study eyes were treated with sham injections or with pegcetacoplan monthly (PM) or every other month (PEOM) for 12 months. […] Fu specifically interpreted the data as showing “on an individual patient level, changes in GA area for the fellow eye exceeded those in the study eye for most patients in the pegcetacoplan treatment groups, while changes in the sham group approached randomness between study and fellow eyes.” Fu et al. (Fu D J et al., “Evaluating the Effects of C3 Inhibition on Geographic Atrophy Progression from Deep-Learning OCT Quantification: A Split-Person Study”. Ophthalmol Ther. 2023). […]
# [11] = test system: patients with bilateral GA; settings: FILLY post hoc analysis (Fu), 12 months; cited from earlier work
# C3 = C3 (Homo sapiens, UniProt P01024); settings: report from publications; read-out: affinity for C3; cited from earlier work
# GA patients [12] = settings: implication of FDA approved prescribing information; cited from earlier work
# [13] = in vivo; cited from earlier work
# C5, sequence (P01031 19-1676): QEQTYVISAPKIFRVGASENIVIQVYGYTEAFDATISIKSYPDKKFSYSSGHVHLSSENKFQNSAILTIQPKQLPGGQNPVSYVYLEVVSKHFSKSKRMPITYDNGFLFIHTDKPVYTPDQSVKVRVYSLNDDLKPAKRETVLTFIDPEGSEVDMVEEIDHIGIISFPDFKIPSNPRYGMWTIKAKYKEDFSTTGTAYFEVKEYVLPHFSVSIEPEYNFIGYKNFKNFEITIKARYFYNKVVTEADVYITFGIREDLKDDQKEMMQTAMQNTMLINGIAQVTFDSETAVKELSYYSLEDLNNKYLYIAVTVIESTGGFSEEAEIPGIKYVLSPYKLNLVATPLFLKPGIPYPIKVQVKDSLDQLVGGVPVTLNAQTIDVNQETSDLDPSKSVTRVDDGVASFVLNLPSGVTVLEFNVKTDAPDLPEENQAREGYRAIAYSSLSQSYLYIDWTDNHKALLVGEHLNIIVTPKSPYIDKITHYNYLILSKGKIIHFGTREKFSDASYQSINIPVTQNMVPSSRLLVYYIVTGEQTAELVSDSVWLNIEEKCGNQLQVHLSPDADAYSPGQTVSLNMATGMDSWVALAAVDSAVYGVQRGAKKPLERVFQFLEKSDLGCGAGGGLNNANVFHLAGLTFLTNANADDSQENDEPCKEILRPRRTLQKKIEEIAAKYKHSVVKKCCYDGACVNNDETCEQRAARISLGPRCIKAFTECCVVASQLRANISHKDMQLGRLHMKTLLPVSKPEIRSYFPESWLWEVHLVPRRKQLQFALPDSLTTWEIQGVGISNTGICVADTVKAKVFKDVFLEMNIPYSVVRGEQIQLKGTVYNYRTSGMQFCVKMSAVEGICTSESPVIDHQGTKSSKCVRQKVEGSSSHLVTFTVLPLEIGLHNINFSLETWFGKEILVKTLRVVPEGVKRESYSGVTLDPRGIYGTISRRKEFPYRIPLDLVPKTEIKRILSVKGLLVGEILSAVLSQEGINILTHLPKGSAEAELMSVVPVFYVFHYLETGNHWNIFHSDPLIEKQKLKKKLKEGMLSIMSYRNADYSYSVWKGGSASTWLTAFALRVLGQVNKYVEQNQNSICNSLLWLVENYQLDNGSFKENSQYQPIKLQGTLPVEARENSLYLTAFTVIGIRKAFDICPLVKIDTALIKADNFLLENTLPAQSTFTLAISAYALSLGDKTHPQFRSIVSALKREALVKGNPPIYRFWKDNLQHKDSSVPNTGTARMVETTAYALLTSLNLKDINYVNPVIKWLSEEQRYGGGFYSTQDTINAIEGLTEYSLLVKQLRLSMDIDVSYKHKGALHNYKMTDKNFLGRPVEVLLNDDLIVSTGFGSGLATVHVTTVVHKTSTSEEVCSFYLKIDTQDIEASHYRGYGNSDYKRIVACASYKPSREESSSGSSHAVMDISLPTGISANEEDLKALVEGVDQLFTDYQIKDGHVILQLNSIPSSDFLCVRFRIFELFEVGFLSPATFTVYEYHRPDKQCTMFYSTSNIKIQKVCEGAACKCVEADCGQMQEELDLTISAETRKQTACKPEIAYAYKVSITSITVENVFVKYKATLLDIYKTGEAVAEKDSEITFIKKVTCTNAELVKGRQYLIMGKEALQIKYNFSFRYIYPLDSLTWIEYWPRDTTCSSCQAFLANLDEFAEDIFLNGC
# C3, sequence (P01024 23-1663): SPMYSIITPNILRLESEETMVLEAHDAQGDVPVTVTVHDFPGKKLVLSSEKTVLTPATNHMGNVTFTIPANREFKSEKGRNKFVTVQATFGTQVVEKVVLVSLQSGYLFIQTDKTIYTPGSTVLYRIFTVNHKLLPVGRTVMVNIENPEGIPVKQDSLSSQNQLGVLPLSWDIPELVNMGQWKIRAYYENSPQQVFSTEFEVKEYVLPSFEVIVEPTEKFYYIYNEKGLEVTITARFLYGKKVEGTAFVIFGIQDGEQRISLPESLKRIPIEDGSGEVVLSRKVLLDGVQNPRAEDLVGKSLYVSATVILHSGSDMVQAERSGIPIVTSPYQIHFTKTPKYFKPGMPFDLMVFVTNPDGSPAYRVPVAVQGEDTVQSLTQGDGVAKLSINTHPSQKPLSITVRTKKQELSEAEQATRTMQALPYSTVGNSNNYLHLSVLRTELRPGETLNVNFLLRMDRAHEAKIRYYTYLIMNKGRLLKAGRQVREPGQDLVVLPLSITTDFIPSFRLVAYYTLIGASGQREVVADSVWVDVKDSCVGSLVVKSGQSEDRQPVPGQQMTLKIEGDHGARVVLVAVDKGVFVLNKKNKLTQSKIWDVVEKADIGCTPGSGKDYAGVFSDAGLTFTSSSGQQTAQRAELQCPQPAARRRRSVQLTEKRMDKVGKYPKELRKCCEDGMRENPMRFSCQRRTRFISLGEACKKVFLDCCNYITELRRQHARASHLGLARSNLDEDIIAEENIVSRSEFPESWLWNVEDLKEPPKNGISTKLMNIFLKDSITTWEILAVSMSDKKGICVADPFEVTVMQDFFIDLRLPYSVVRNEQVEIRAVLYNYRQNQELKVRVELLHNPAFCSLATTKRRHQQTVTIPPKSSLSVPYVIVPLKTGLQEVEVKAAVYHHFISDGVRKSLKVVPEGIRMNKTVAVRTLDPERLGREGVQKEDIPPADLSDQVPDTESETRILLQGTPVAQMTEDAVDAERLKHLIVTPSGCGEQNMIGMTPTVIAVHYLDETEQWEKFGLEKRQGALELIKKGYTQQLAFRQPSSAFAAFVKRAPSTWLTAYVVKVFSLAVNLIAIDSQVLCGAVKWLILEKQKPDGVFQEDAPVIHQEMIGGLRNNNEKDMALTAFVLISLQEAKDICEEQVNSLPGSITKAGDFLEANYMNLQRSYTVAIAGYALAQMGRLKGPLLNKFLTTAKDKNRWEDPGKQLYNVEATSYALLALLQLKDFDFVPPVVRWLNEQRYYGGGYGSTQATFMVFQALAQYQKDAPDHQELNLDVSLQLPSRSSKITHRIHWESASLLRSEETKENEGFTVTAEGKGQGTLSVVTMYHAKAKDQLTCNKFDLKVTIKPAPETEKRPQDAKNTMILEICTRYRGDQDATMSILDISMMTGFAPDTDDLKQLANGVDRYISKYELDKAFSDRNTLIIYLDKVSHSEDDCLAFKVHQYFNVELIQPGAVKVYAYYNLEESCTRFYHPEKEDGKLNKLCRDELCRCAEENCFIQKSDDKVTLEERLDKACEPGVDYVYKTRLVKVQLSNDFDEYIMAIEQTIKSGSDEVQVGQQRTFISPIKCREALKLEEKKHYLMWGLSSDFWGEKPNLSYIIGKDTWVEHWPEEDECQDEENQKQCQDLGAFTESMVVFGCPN
molecule,measurement,setting,value
[2H]C([2H])([2H])C(/C=C/C=C(C)/C=C/C1=C(C)CCCC1(C)C)=C\COC(C)=O [Alkeus],benefit in trials,[1],failed to show benefit
CC(=O)c1nn(CC(=O)N2C[C@H](F)C[C@H]2C(=O)Nc2cccc(Br)n2)c2ccc(-c3cnc(C)nc3)cc12 [danicopan],benefit in trials,[1],failed to show benefit
avacincaptad pegol [IZERVAY®],reduction in mean rate of GA growth vs. sham at 12 months,GA patients [2]; GATHER 1,27.4%
same,reduction in mean rate of GA growth vs. sham at 12 months,GA patients [2]; GATHER 2,14%
same,geometric mean half-life of elimination (t1/2),[3],288 h
same,Kd,C5,~3 nM
"lampalizumab: anti-fD fab, intravitreally administered 10 mg at q4w or q6w",Post treatment response: Effective (number of eyes),"Bb in aqueous humor [4]; Q4w, 35 eyes, 14 hyper",6
same,Of Hyper; Effective,Bb in aqueous humor [4]; Q4w,43%
same,Post treatment response: Effective (number of eyes),"Bb in aqueous humor [4]; Q6w, 32 eyes, 10 hyper",2
same,Of Hyper; Effective,Bb in aqueous humor [4]; Q6w,20%
same,Change in GA area from baseline: (Edmonds et al) Biomarker pooled cohort at 48 w divided by 2,[5]; Q4w,1.08
same,Change in GA area from baseline: CHROMA + SPECTRIA Pooled topline extrapolate to 24 w,[5]; Q4w,1.027
same,Change in GA area from baseline: (Edmonds et al) Biomarker pooled cohort at 48 w divided by 2,[5]; Q6w,1.03
same,Change in GA area from baseline: CHROMA + SPECTRIA Pooled topline extrapolate to 24 w,[5]; Q6w,1.028
same,Bb/CFB in aqueous humor,Bb in aqueous humor [6],decreases in Bb/CFB
same,Change in GA area from baseline: (Edmonds et al) Biomarker pooled cohort at 48 w,[7]; Q4w,2.16
same,Change in GA area from baseline: Actual Data from (Edmonds) Biomarker pooled cohort at 24 w,[7]; Q4w,1.0
same,Change in GA area from baseline: CHROMA + SPECTRI Pooled topline at 48 weeks,[7]; Q4w,2.054
same,Change in GA area from baseline: (Edmonds et al) Biomarker pooled cohort at 48 w,[7]; Q6w,2.06
same,Change in GA area from baseline: Actual Data from (Edmonds) Biomarker pooled cohort at 24 w,[7]; Q6w,1.04
same,Change in GA area from baseline: CHROMA + SPECTRI Pooled topline at 48 weeks,[7]; Q6w,2.055
same,benefit in trials,[1],failed to show benefit
same,Status (clinical trial outcome),[1],failed to meet
pegcetacoplan [SYFOVRE®],Response Category,"[8]; Eye ID 001, OD, baseline category Hyper",Effective Complement Inhibition
same,Response Category,"[8]; Eye ID 002, OS, baseline category Hypo",Not
same,Response Category,"[8]; Eye ID 003, OD, baseline category Hyper",Not
same,Response Category,"[8]; Eye ID 004, OS, baseline category Hyper",Not
same,Response Category,"[8]; Eye ID 005, OD, baseline category Homeo",Not
same,Response Category,"[8]; Eye ID 006, OS, baseline category Homeo",Not
same,Response Category,"[8]; Eye ID 007, OD, baseline category Hypo",Not
same,Response Category,"[8]; Eye ID 008, OS, baseline category Hypo",Not
same,Response Category,"[8]; Eye ID 009, OD, baseline category Hypo",Not
same,RPE depletion area post treatment,"[9]; Eye ID 001, OD, hyper baseline, effective complement inhibition, baseline 6.57 mm^2",6.45 mm^2
same,RPE depletion area post treatment,"[9]; Eye ID 002, OS, hypo baseline, baseline 5.8 mm^2",6.75 mm^2
same,">=50% slowing study vs. fellow, %","[10]; PEOM (every other month), 35 eyes",20%
same,">=50% slowing study vs. fellow, %","[10]; PM (monthly), 36 eyes",53%
same,spatial GA progression compared to untreated fellow eyes,[11],reduction in spatial GA progression
same,Kd,C3,15 nM
same,"expected average efficacy, slowing for all indicated GA patients",GA patients [12],20%
same,geometric mean half-life of elimination (t1/2),[13],108 h
"Tesidolumab: an antibody vs. C5 (antibody, chains of the INN, looked up, V domains shown) VH: EVQLVQSGAEVKKPGSSVKVSCKASGGTFSSYAISWVRQAPGQGLEWMGGIGPFFGTANYAQKFQGRVTITADESTSTAYMELSSLRSEDTAVYYCARDTPYFDYWGQGTLVTVSS VL: SYELTQPLSVSVALGQTARITCSGDSIPNYYVYWYQQKPGQAPVLVIYDDSNRPSGIPERFSGSNSGNTATLTISRAQAGDEADYYCQSFDSSLNAEVFGGGTKLTVL",Status (clinical trial outcome),[1],Phase II failed
